pIC50: −log10 of the molar value.
What was measured:
[1] = tested on: THP-1 cells; assay: TNFα generation assay; type: cell-based, human; conditions: Homo sapiens, THP-1, THP-1 cells; Table 22; read-out: IC50 in TNFα generation assay
Experimental: THP-1 cells (2×10^5 cells/ml), which were human monocytoid cells, were cultured in the presence of 10 ng/ml IFN-γ (Roche) for 2 days, so that the cells were induced to differentiate into macrophage-like cells. The differentiation-induced THP-1 cells were recovered, and the cells (1×10^6 cell/ml) were then allowed to react with a predetermined concentration of test compound at room temperature for 30 minutes. On the other hand, 100 μl of human IgG (10 μg/ml, SIGMA-ALDRICH) diluted with PBS was added to a 96-well plate, and it was then incubated at room temperature overnight. Thereafter, the resultant was washed with PBS twice to produce a human IgG-coated plate. Subsequently, a cell solution that contained a compound was inoculated on the human IgG-coated plate (5×10^4 cells/well), and it was then cultured for 7 hours. Thereafter, the cultured solution was recovered, and the amount of TNFα secreted into the culture solution was then measured by the ELISA method (Roche/R & D Systems) or the AlphaLISA method (PerkinElmer).

[2] = target: T1, glutathione S-transferase (GST)-fused full-length human Syk protein (Homo sapiens, UniProt P43405); assay: Syk enzyme assay; type: biochemical; conditions: Syk enzyme assay, Test Example 1; read-out: IC50 of Syk-inhibitory activity
T1 construct: (GST)-fused full-length human Syk protein; GST (glutathione S-transferase); purchased Carna Biosciences
In short: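 Baculovirus-expressed enzyme (1.2 ng) was preincubated with compound in HEPES pH 7.0/MgCl2/DTT buffer, 2 min shaking then 13 min at room temperature. Biotin-EDPDYEWPSA-NH2 (0.4 μM final) and ATP (27 μM final) were added for 40 min at room temperature. EDTA stop, streptavidin-XL/PT66-K TR-FRET at 615/665 nm gave IC50.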

Row | SMILES | pIC50 [1] | pIC50 [2]
1 | CCn1ncc2cc(Nc3nc(N[C@H](C)[C@H](C)N)c(F)cc3C(N)=O)ccc21 (racemic) [Example 006-184, 6-(((2R,3S)-3-aminobutan-2-yl)amino)-2-((1-ethyl-1H-indazol-5-yl)amino)-5-fluoronicotinamide 6-(((2S,3R)-3-aminobutan-2-yl)amino)-2-((1-ethyl-1H-indazol-5-yl)amino)-5-fluoronicotinamide] | 6.89 to 7.19 | > 8.00
2 | Cc1nc2ccc(Nc3nc(N[C@H](C)[C@H](C)N)c(F)cc3C(N)=O)cc2nc1C (racemic) [Example 006-185, 6-(((2R,3S)-3-aminobutan-2-yl)amino)-2-((2,3-dimethylquinoxalin-6-yl)amino)-5-fluoronicotinamide 6-(((2S,3R)-3-aminobutan-2-yl)amino)-2-((2,3-dimethylquinoxalin-6-yl)amino)-5-fluoronicotinamide] | 6.89 to 7.19 | 7.30 to 8.00
3 | CCCOc1cc(Nc2nc(N[C@H](C)[C@H](C)N)c(F)cc2C(N)=O)ccn1 (racemic) [Example 006-187, 6-(((2R,3S)-3-aminobutan-2-yl)amino)-5-fluoro-2-((2-propoxypyridin-4-yl)amino)nicotinamide 6-(((2S,3R)-3-aminobutan-2-yl)amino)-5-fluoro-2-((2-propoxypyridin-4-yl)amino)nicotinamide] | 6.70 to 6.89 | > 8.00
4 | C[C@H](N)[C@@H](C)Nc1nc(Nc2ccc3scnc3c2)c(C(N)=O)cc1F (racemic) [Example 006-188, 6-(((2R,3S)-3-aminobutan-2-yl)amino)-2-(benzo[d]thiazol-5-ylamino)-5-fluoronicotinamide 6-(((2S,3R)-3-aminobutan-2-yl)amino)-2-(benzo[d]thiazol-5-ylamino)-5-fluoronicotinamide] | 6.89 to 7.19 | > 8.00
5 | C[C@H](N)[C@@H](C)Nc1nc(Nc2cncc(-n3cccn3)c2)c(C(N)=O)cc1F (racemic) [Example 006-192, 2-((5-(1H-pyrazol-1-yl)pyridin-3-yl)amino)-6-(((2R,3S)-3-aminobutan-2-yl)amino)-5-fluoronicotinamide 2-((5-(1H-pyrazol-1-yl)pyridin-3-yl)amino)-6-(((2S,3R)-3-aminobutan-2-yl)amino)-5-fluoronicotinamide] | 6.89 to 7.19 | 7.30 to 8.00
6 | C[C@H](N)[C@@H](C)Nc1nc(Nc2cncc(C3CC3)c2)c(C(N)=O)cc1F (racemic) [Example 006-193, 6-(((2R,3S)-3-aminobutan-2-yl)amino)-2-((5-cyclopropylpyridin-3-yl)amino)-5-fluoronicotinamide 6-(((2S,3R)-3-aminobutan-2-yl)amino)-2-((5-cyclopropylpyridin-3-yl)amino)-5-fluoronicotinamide] | > 7.19 | > 8.00
7 | C[C@H](N)[C@@H](C)Nc1nc(Nc2cncc(-c3ccccc3)c2)c(C(N)=O)cc1F (racemic) [Example 006-195, 6-(((2R,3S)-3-aminobutan-2-yl)amino)-5-fluoro-2-((5-phenylpyridin-3-yl)amino)nicotinamide 6-(((2S,3R)-3-aminobutan-2-yl)amino)-5-fluoro-2-((5-phenylpyridin-3-yl)amino)-nicotinamide] | > 7.19 | > 8.00
8 | Cc1cnc2cc(Nc3nc(N[C@H](C)[C@H](C)N)c(F)cc3C(N)=O)ccc2n1 (racemic) [Example 006-196, 6-(((2R,3S)-3-aminobutan-2-yl)amino)-5-fluoro-2-((2-methylquinoxalin-6-yl)amino)nicotinamide 6-(((2S,3R)-3-aminobutan-2-yl)amino)-5-fluoro-2-((2-methylquinoxalin-6-yl)amino)nicotinamide] | 6.89 to 7.19 | 7.30 to 8.00
9 | CCOc1cc(Nc2nc(N[C@H](C)[C@H](C)N)c(F)cc2C(N)=O)ccn1 (racemic) [Example 006-213, 6-(((2R,3S)-3-aminobutan-2-yl)amino)-2-((2-ethoxypyridin-4-yl)amino)-5-fluoronicotinamide 6-(((2S,3R)-3-aminobutan-2-yl)amino)-2-((2-ethoxypyridin-4-yl)amino)-5-fluoronicotinamide] | 6.70 to 6.89 | > 8.00
10 | C[C@H](N)[C@@H](C)Nc1nc(Nc2ccc3ncccc3c2)c(C(N)=O)cc1F (racemic) [Example 39-1, 6-(((2R,3S)-3-aminobutan-2-yl)amino)-5-fluoro-2-((quinolin-6-yl)amino)nicotinamide 6-(((2S,3R)-3-aminobutan-2-yl)amino)-5-fluoro-2-((quinolin-6-yl)amino)nicotinamide] | > 7.19 | > 8.00
11 | NC(=O)c1cc(F)c(N[C@@H]2CCCC[C@@H]2N)nc1Nc1cncc(N2CCCC2)c1 (relative stereo) [Example 004-049] | 6.70 to 6.89 | > 8.00
12 | NC(=O)c1cc(F)c(N[C@@H]2CCCC[C@@H]2N)nc1Nc1cncc(N2CCCCC2)c1 (relative stereo) [Example 004-050] | 6.70 to 6.89 | 7.30 to 8.00
13 | NC(=O)c1cc(F)c(N[C@@H]2CCCC[C@@H]2N)nc1Nc1cncc(N2CCOCC2)c1 (relative stereo) [Example 004-051] | 6.70 to 6.89 | > 8.00
14 | NC(=O)c1cc(F)c(N[C@@H]2CCCC[C@@H]2N)nc1Nc1cncc(-c2ccc[nH]2)c1 (relative stereo) [Example 004-053] | 6.89 to 7.19 | > 8.00
15 | NC(=O)c1cc(F)c(N[C@@H]2CCCC[C@@H]2N)nc1Nc1cncc(-c2cccs2)c1 (relative stereo) [Example 004-054] | 6.89 to 7.19 | > 8.00
16 | NC(=O)c1cc(F)c(N[C@@H]2CCCC[C@@H]2N)nc1Nc1cncc(C2CC2)c1 (relative stereo) [Example 004-055] | 6.89 to 7.19 | > 8.00
17 | NC(=O)c1cc(F)c(N[C@@H]2CCCC[C@@H]2N)nc1Nc1cncc(-c2ccc3c(c2)OCCO3)c1 (relative stereo) [Example 004-056] | 6.70 to 6.89 | > 8.00
18 | NC(=O)c1cc(F)c(N[C@@H]2CCCC[C@@H]2N)nc1Nc1cncc(-c2ccco2)c1 (relative stereo) [Example 004-058] | 6.89 to 7.19 | > 8.00
19 | NC(=O)c1cc(F)c(N[C@@H]2CCCC[C@@H]2N)nc1Nc1cnc2c(N)cccc2c1 (relative stereo) [Example 004-059] | > 7.19 | > 8.00
20 | NC(=O)c1cc(F)c(N[C@@H]2CCCC[C@@H]2N)nc1Nc1cnc2[nH]ccc2c1 (relative stereo) [Example 004-061] | > 7.19 | > 8.00
21 | NC(=O)c1cc(F)c(N[C@@H]2CCCC[C@@H]2N)nc1Nc1cncc2[nH]ccc12 (relative stereo) [Example 004-062] | > 7.19 | > 8.00
22 | NC(=O)Nc1cccc2cc(Nc3nc(N[C@@H]4CCCC[C@@H]4N)c(F)cc3C(N)=O)cnc12 (relative stereo) [Example 004-064] | > 7.19 | 6.00 to 7.00
23 | COc1cc(Nc2nc(N[C@@H]3CCCC[C@@H]3N)c(F)cc2C(N)=O)c2cc[nH]c2n1 (relative stereo) [Example 004-065, 6-(cis-2-aminocyclohexylamino)-5-fluoro-2-((6-methoxy-1H-pyrrolo[2,3-b]pyridin-4-yl)-amino)nicotinamide] | 6.89 to 7.19 | > 8.00
24 | NC(=O)c1cc(F)c(N[C@@H]2CCCC[C@@H]2N)nc1Nc1cc(-n2ccnn2)nc2[nH]ccc12 (relative stereo) [Example 004-068, 2-((6-(1H-1,2,3-triazol-1-yl)-1H-pyrrolo[2,3-b]pyridin-4-yl)amino)-6-(cis-2-aminocyclohexylamino)-5-fluoronicotinamide] | 6.89 to 7.19 | > 8.00
25 | NC(=O)c1cc(F)c(N[C@@H]2CCCC[C@@H]2N)nc1Nc1cc(-n2cncn2)nc2[nH]ccc12 (relative stereo) [Example 004-069, 2-((6-(1H-1,2,4-triazol-1-yl)-1H-pyrrolo[2,3-b]pyridin-4-yl)amino)-6-(cis-2-aminocyclohexylamino)-5-fluoronicotinamide] | 6.89 to 7.19 | > 8.00
26 | Cc1cc2cc(Nc3nc(N[C@@H]4CCCC[C@@H]4N)c(F)cc3C(N)=O)ccc2[nH]1 (relative stereo) [Example 004-071, 6-(cis-2-aminocyclohexylamino)-5-fluoro-2-((2-methyl-1H-indol-5-yl)amino)nicotinamide] | 6.70 to 6.89 | > 8.00
27 | Cn1cc(-c2cncc(Nc3nc(N[C@@H]4CCCC[C@@H]4N)c(F)cc3C(N)=O)c2)cn1 (relative stereo) [Example 004-072, 6-(cis-2-aminocyclohexylamino)-5-fluoro-2-((5-(1-methyl-1H-pyrazol-4-yl)pyridin-3-yl)-amino)nicotinamide] | 6.70 to 6.89 | > 8.00
28 | NC(=O)c1cc(F)c(N[C@@H]2CCCC[C@@H]2N)nc1Nc1cncc(-c2cncs2)c1 (relative stereo) [Example 004-074, 6-(cis-2-aminocyclohexylamino)-5-fluoro-2-((5-(thiazol-5-yl)pyridin-3-yl)amino)-nicotinamide] | 6.89 to 7.19 | > 8.00
